Measured values from ChEMBL document CHEMBL3243944, “Synthesis of spiro[isobenzofuran-1(3H),4'-piperidines] as potential central nervous system agents. 2. Compounds containing a heteroatom attached to nitrogen” (1977).

Each compound was assayed on Mus musculus (assay: Antitetrabenazine activity in ip dosed CD1 mouse assessed as inhibition of tetrabenazine-induced ptosis challenged with tetrabenazine after 30 mins later and after another 30 mins of drug treatment). Details: 0.5 h.
Format: functional

`COc1ccc2c(c1)C1(CCN(O)CC1)OC2c1ccccc1` (stereo unspecified) and `COc1ccc(C2OC3(CCN(O)CC3)c3ccccc32)cc1` (stereo unspecified) are within 1.5-fold of each other in ED50: 4.7 mg/kg for the first, 3.5 mg/kg for the second.

Going from `NN1CCC2(CC1)OC(c1ccccc1)c1ccccc12` (stereo unspecified) to `ON1CCC2(CC1)OC(c1ccccc1)c1ccccc12` (stereo unspecified), the ED50 falls from 6.8 mg/kg to 1.4 mg/kg (4.9-fold).

`CC(C)NN1CCC2(CC1)OC(c1ccccc1)c1ccccc12` (stereo unspecified) and `O=NN1CCC2(CC1)OC(c1ccccc1)c1ccccc12` (stereo unspecified) cannot be ordered by ED50: > 25 mg/kg for the first, > 25 mg/kg for the second.

Compared with `O=C(ON1CCC2(CC1)OC(c1ccccc1)c1ccccc12)c1ccccc1` (stereo unspecified), `c1ccc(C2OC3(CCNCC3)c3ccccc32)cc1` (stereo unspecified) is lower in ED50: > 25 mg/kg for the first, 0.5 mg/kg for the second.

Going from `CNCCCN1c2ccccc2CCc2ccccc21` [DESIPRAMINE] to `CN(C)CCCN1c2ccccc2CCc2ccccc21` [IMIPRAMINE], the ED50 rises from 0.8 mg/kg to 1.3 mg/kg (1.6-fold).

In the case of `ON1CCC2(CC1)OC(c1ccc(F)cc1)c1ccccc12` (stereo unspecified), the ED50 is reported as 4 mg/kg.
